Measurements as given in the Kinase Knowledgebase extract (Sharma et al. 2016).

Each compound was assayed against PIK3CG (human) (UniProt P48736) (assay: Inhibition of PIK3CG Kinase Activity).
Sequence of PIK3CG (human) (P48736 whole entry, looked up): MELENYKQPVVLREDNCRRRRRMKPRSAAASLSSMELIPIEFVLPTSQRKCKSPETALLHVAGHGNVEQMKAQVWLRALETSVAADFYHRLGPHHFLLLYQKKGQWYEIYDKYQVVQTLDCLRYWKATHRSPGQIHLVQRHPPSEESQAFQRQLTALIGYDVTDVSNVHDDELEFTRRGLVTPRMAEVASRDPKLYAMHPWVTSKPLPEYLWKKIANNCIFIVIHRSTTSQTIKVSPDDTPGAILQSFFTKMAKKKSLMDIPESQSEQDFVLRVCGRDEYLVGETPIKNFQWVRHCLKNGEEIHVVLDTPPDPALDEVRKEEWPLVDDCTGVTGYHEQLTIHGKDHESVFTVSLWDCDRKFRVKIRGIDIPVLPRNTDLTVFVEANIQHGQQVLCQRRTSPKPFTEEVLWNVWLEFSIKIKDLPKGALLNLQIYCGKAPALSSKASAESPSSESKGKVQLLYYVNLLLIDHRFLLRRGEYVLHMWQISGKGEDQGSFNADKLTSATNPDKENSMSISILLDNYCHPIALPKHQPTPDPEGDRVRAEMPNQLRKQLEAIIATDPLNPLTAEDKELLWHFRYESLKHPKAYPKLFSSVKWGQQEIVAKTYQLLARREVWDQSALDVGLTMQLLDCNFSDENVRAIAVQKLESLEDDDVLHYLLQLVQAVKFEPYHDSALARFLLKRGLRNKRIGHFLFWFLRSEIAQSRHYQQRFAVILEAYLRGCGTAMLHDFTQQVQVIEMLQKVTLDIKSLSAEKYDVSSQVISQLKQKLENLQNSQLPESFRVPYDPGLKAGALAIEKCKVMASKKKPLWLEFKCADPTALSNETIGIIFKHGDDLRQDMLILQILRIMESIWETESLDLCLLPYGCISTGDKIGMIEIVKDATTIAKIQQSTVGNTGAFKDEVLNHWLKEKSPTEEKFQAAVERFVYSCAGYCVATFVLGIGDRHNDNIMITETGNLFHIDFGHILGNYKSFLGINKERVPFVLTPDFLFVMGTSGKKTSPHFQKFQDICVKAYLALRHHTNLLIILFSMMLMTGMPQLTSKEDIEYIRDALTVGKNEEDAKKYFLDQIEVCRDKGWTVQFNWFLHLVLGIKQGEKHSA

IC50, < 10 µM:
Nc1nc2ccc(-c3cncc(S(=O)(=O)NCCCC(F)(F)F)c3)cn2n1
CCN(CC)S(=O)(=O)c1cncc(-c2ccc3nc(N)nn3c2)c1
Nc1nc2ccc(-c3cccc(S(=O)(=O)NCCCCC(=O)O)c3)cn2n1
CC(C)(C)CS(=O)(=O)c1cncc(-c2ccc3nc(N)nn3c2)c1
CCCCNS(=O)(=O)c1cncc(-c2ccc3nc(N)nn3c2)c1
CS(=O)(=O)c1cccc(-c2cc(F)c3nc(N)nn3c2)c1
CC(C)(C)NS(=O)(=O)c1cccc(-c2ccc3nc(N)nn3c2)c1
Nc1nc2ccc(-c3cncc(NS(=O)(=O)c4ccccc4C(F)(F)F)c3)cn2n1
CCCCN(Cc1ccccc1)S(=O)(=O)c1cncc(-c2ccc3nc(N)nn3c2)c1
Nc1nc2ccc(-c3cccc(S(=O)(=O)NCC(=O)O)c3)cn2n1
Nc1nc2ccc(-c3cncc(S(=O)(=O)N(Cc4ccccc4F)C4CC4)c3)cn2n1
Nc1nc2ccc(-c3cncc(S(=O)(=O)NCC(F)(F)F)c3)cn2n1
CC(C)(NS(=O)(=O)c1cncc(-c2ccc3nc(N)nn3c2)c1)c1ccccc1
Nc1nc2ccc(-c3cncc(S(=O)(=O)Nc4ccc(Cl)cc4)c3)cn2n1
COc1ccc(-c2ccc3nc(N)nn3c2)cc1OC(C)C
CC(C)(CN1CCCC1)NS(=O)(=O)c1cncc(-c2ccc3nc(N)nn3c2)c1
CC(C)CCNS(=O)(=O)c1cncc(-c2ccc3nc(N)nn3c2)c1
Nc1nc2ccc(-c3ccc(F)c(F)c3)cn2n1
CC(C)NS(=O)(=O)c1cncc(-c2cc(F)c3nc(N)nn3c2)c1
Nc1nc2ccc(-c3cncc(S(=O)(=O)Nc4ccc(C(F)(F)F)cc4)c3)cn2n1
Nc1nc2ccc(-c3cncc(S(=O)(=O)NC4CCCCC4)c3)cn2n1
CCCNS(=O)(=O)c1cncc(-c2ccc3nc(N)nn3c2)c1
CC(C)(C)COc1cncc(-c2ccc3nc(N)nn3c2)c1
Nc1nc2ccc(-c3cncc(S(=O)(=O)NCC4CCCC4)c3)cn2n1
Nc1nc2ccc(-c3cncc(NS(=O)(=O)c4ccc(C(F)(F)F)cc4)c3)cn2n1
Nc1nc2ccc(-c3cncc(S(=O)(=O)N4CCNCC4)c3)cn2n1
CN(C)C(=O)CNS(=O)(=O)c1cncc(-c2ccc3nc(N)nn3c2)c1
Nc1nc2ccc(-c3cncc(S(=O)(=O)N4CCC(F)(F)CC4)c3)cn2n1
CNS(=O)(=O)c1cncc(-c2cc(F)c3nc(N)nn3c2)c1
Nc1nc2ccc(-c3ccc(F)cc3)cn2n1
COc1cc(-c2ccc3nc(N)nn3c2)cc(OC)c1OC
CN(Cc1ccccc1)S(=O)(=O)c1cncc(-c2ccc3nc(N)nn3c2)c1
CC(C)c1cccc(NS(=O)(=O)c2cncc(-c3ccc4nc(N)nn4c3)c2)c1
CC1(NS(=O)(=O)c2cncc(-c3ccc4nc(N)nn4c3)c2)CCC1
Nc1nc2ccc(-c3cncc(S(=O)(=O)NCC4CCC4)c3)cn2n1
Nc1nc2ccc(-c3cncc(S(=O)(=O)NCC4CCCCCC4)c3)cn2n1
CCCCN(C)S(=O)(=O)c1cncc(-c2ccc3nc(N)nn3c2)c1
CC(C)NS(=O)(=O)c1cncc(-c2ccc3nc(N)nn3c2)c1
Nc1nc2ccc(-c3ccc4c(c3)OCCO4)cn2n1
Nc1nc2ccc(-c3cncc(S(=O)(=O)NCc4ccc(F)cc4)c3)cn2n1
Nc1nc2ccc(-c3cncc(NS(=O)(=O)Cc4ccc(C(F)(F)F)cc4)c3)cn2n1
Nc1nc2ccc(-c3cnc(N)c(C(F)(F)F)c3)cn2n1
COc1ccc(-c2cc(C)c3nc(N)nn3c2)cc1OC
Nc1nc2ccc(-c3cncc(S(=O)(=O)Nc4ccc(F)cc4F)c3)cn2n1
CC(C)c1ccc(NS(=O)(=O)c2cncc(-c3ccc4nc(N)nn4c3)c2)cc1
COc1ccc(-c2ccc3nc(N)nn3c2)cc1OC
Nc1nc2ccc(-c3cncc(S(=O)(=O)N4CCC4)c3)cn2n1
Nc1nc2ccc(-c3cccs3)cn2n1
CC(C)(C)NS(=O)(=O)c1cncc(-c2ccc3nc(N)nn3c2)c1
Nc1nc2ccc(-c3cncc(S(=O)(=O)Nc4cc(F)cc(F)c4)c3)cn2n1
Cn1cc(-c2ccc3nc(N)nn3c2)cn1
Nc1nc2ccc(-c3cncc(S(=O)(=O)Nc4ccccc4)c3)cn2n1
Nc1nc2ccc(-c3cncc(OCc4ccccc4)c3)cn2n1
Nc1nc2ccc(-c3cncc(S(=O)(=O)NC4CCOCC4)c3)cn2n1
COc1ccc(-c2cc(F)c3nc(N)nn3c2)cc1OC
CN(c1cccc(C(F)(F)F)c1)S(=O)(=O)c1cncc(-c2ccc3nc(N)nn3c2)c1
Nc1nc2ccc(-c3cncc(S(=O)(=O)NC4CCCC4)c3)cn2n1
CCCCNS(=O)(=O)c1cccc(-c2ccc3nc(N)nn3c2)c1
COc1cccc(-c2ccc3nc(N)nn3c2)c1
NCCNS(=O)(=O)c1cccc(-c2ccc3nc(N)nn3c2)c1
COc1ccc(-c2ccc3nc(N)nn3c2)cc1O
Nc1nc2ccc(-c3ccc(S(N)(=O)=O)cc3)cn2n1
COc1ccc(-c2cn3nc(N)nc3cc2C)cc1OC
CC(C)(NS(=O)(=O)c1cncc(-c2ccc3nc(N)nn3c2)c1)c1ccc(F)cc1
Nc1nc2ccc(-c3cccc(C(=O)O)c3)cn2n1
CCN(C)S(=O)(=O)c1cncc(-c2cc(F)c3nc(N)nn3c2)c1
Nc1nc2ccc(-c3cncc(S(=O)(=O)N4CCOCC4)c3)cn2n1
Nc1nc2ccc(-c3cncc(S(=O)(=O)NC4CC4)c3)cn2n1
Nc1nc2ccc(-c3cncc(S(=O)(=O)Nc4ccccc4C(F)(F)F)c3)cn2n1
Nc1nc2ccc(-c3cncc(Oc4ccccc4)c3)cn2n1
CC(C)(C)S(=O)(=O)c1cncc(-c2ccc3nc(N)nn3c2)c1
Nc1nc2ccc(-c3cncc(S(=O)(=O)N4CCCC4)c3)cn2n1
CC(C)CNS(=O)(=O)c1cncc(-c2ccc3nc(N)nn3c2)c1
N#Cc1cccc(-c2ccc3nc(N)nn3c2)c1
CN(Cc1cccc(Cl)c1Cl)S(=O)(=O)c1cncc(-c2ccc3nc(N)nn3c2)c1
Nc1nc2ccc(-c3cccc(S(N)(=O)=O)c3)cn2n1
Nc1nc2ccc(-c3cncc(S(=O)(=O)NCc4ccccc4)c3)cn2n1
CC(C)(C)CNS(=O)(=O)c1cncc(-c2ccc3nc(N)nn3c2)c1
Nc1nc2ccc(-c3ccccc3)cn2n1
CC(C)(C)NS(=O)(=O)c1cncc(-c2cc(F)c3nc(N)nn3c2)c1
CN(C)CCCNS(=O)(=O)c1cncc(-c2ccc3nc(N)nn3c2)c1
Nc1nc2ccc(-c3cncc(S(=O)(=O)NCc4ccc(Cl)c(Cl)c4)c3)cn2n1
Nc1nc2ccc(-c3cncc(S(=O)(=O)NCCC(F)(F)F)c3)cn2n1
Nc1nc2ccc(-c3cncc(S(=O)(=O)N4CCc5ccccc5C4)c3)cn2n1
CCNc1cccc(-c2ccc3nc(N)nn3c2)c1
Nc1nc2c(F)cc(-c3cncc(S(=O)(=O)N4CCC4)c3)cn2n1
Nc1nc2ccc(-c3cncc(S(=O)(=O)NCCN4CCNC4=O)c3)cn2n1
Nc1nc2ccc(-c3cncc(S(=O)(=O)N4CCCCCC4)c3)cn2n1
Nc1nc2ccc(-c3cncc(NS(=O)(=O)c4cccc(C(F)(F)F)c4)c3)cn2n1
CN(C)CCN(C)S(=O)(=O)c1cccc(-c2ccc3nc(N)nn3c2)c1
Nc1nc2ccc(-c3cncc(S(=O)(=O)Nc4ccc(OC(F)(F)F)cc4)c3)cn2n1
Nc1nc2ccc(-c3cncc(S(=O)(=O)N4Cc5ccccc5C4)c3)cn2n1
CN(C)CCCNS(=O)(=O)c1cccc(-c2ccc3nc(N)nn3c2)c1
COc1cc(-c2ccc3nc(N)nn3c2)ccc1O
Nc1nc2ccc(-c3cncc(S(=O)(=O)Nc4cc(C(F)(F)F)cc(C(F)(F)F)c4)c3)cn2n1
Nc1nc2ccc(-c3cccc(S(=O)(=O)NCCO)c3)cn2n1
CC(C)COc1cncc(-c2ccc3nc(N)nn3c2)c1
COc1ccccc1NS(=O)(=O)c1cncc(-c2ccc3nc(N)nn3c2)c1
COc1cc(-c2ccc3nc(N)nn3c2)ccc1OC(C)C
Nc1nc2ccc(-c3cncnc3)cn2n1
